This is an account of results in article PMC9011219 (Annals of Translational Medicine, 2022).

Each structure is given as a SMILES string.

Usually IC50 stands for the concentration that inhibits the measured activity by half. Lower therefore signals inhibition by little substance.

In one assay the target is BuChE (Equus caballus, UniProt P81908). In words: Ellman assay. It counts as biochemical. In general terms: In Ellman's method for cholinesterases, released thiocholine reacts with DTNB.
Another assay deals with AChE (Electrophorus electricus, UniProt O42275). The experiment in a line: Ellman assay. It counts as biochemical.
Chain of AChE (O42275 24-633): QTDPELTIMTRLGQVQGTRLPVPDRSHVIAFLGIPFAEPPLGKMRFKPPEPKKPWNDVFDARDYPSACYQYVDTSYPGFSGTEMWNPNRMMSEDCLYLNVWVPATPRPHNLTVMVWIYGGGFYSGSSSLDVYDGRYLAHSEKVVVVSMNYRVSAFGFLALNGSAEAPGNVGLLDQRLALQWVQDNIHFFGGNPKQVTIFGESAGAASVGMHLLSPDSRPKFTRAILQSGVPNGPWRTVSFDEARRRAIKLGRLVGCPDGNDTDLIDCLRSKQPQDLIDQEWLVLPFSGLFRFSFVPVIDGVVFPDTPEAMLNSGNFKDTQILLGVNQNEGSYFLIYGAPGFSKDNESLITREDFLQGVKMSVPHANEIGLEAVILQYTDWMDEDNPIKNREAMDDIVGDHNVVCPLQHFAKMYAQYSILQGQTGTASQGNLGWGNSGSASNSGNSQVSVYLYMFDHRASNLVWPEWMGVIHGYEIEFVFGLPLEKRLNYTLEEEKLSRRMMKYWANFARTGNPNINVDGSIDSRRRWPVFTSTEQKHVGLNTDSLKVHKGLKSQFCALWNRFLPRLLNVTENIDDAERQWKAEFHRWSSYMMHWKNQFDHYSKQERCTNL

Chain of BuChE (P81908 whole entry): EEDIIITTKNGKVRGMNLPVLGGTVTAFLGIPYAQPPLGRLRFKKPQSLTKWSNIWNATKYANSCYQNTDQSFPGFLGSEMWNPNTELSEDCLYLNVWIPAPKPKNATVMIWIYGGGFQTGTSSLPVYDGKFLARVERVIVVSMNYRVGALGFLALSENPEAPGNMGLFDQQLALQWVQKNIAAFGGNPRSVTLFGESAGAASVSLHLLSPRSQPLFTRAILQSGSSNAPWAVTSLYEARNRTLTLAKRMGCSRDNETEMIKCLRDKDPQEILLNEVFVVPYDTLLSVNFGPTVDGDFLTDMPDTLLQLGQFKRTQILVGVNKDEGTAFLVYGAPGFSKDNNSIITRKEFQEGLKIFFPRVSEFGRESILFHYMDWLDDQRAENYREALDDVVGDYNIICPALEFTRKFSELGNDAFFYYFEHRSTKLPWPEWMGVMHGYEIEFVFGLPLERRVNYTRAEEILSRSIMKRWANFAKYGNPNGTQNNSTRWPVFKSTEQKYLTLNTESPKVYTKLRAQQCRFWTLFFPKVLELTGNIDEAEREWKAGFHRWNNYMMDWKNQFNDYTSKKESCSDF

`O=C(NCCc1c[nH]c2ccccc12)Nc1cccc2cccnc12` [a1, 1-(2-(1H-indol-3-yl)ethyl)-3-(quinolin-8-yl) urea] displayed an IC50 against BuChE of 10.3 ± 0.7 µM. `COc1ccc2[nH]cc(CCNC(=O)Nc3cccc4cccnc34)c2c1` [a2, 1-(2-(5-methoxy-1H-indol-3-yl)ethyl)-3-(quinolin-8-yl) urea] had a half-inhibitory concentration (IC50) against AChE of 29.2 ± 1.2 µM. For `O=C(NCCc1c[nH]c2ccc(O)cc12)Nc1cccc2cccnc12` [a3, 1-(2-(5-hydroxy-1H-indol-3-yl)ethyl)-3-(quinolin-8-yl) urea], the values for the half-maximal inhibitory concentration (IC50) against AChE and on BuChE were 36.3 ± 0.7 µM and 8.78 ± 0.3 µM, respectively. The corresponding values for `CN(C)C(=O)Oc1ccc2[nH]cc(CCNC(=O)Nc3cccc4cccnc34)c2c1` [a4, 3-(2-(3-(quinolin-8-yl)ureido)ethyl)-1H-indol-5-yl dimethylcarbamate] are 35.6 ± 0.6 µM and 3.3 ± 0.2 µM. Compound `CCN(C)C(=O)Oc1ccc2[nH]cc(CCNC(=O)Nc3cccc4cccnc34)c2c1` [a5, 3-(2-(3-(quinolin-8-yl)ureido)ethyl)-1H-indol-5-yl ethyl (methyl) carbamate] returned an IC50 on BuChE of 2.6 ± 0.4 µM. As for `O=C(CNc1cccc2cccnc12)NCCc1c[nH]c2ccccc12` [b1, N-(2-(1H-indol-3-yl)ethyl)-2-(quinolin-8-ylamino) acetamide], the IC50 at AChE worked out at 11.2 ± 0.4 µM. Still for that read-out and setting: as for `COc1ccc2[nH]cc(CCNC(=O)CNc3cccc4cccnc34)c2c1` [b2, N-(2-(5-methoxy-1H-indol-3-yl)ethyl)-2-(quinolin-8-ylamino) acetamide], the figure is 13 ± 0.2 µM. On the same count and under the same terms, as for `O=C(CNc1cccc2cccnc12)NCCc1c[nH]c2ccc(O)cc12` [b3, N-(2-(5-hydroxy-1H-indol-3-yl)ethyl)-2-(quinolin-8-ylamino) acetamide], the figure is 4.34 ± 0.1 µM. Turning to `CN(C)C(=O)Oc1ccc2[nH]cc(CCNC(=O)CNc3cccc4cccnc34)c2c1` [b4, 3-(2-(2-(quinolin-8-ylamino)acetamido)ethyl)-1H-indol-5-yl dimethylcarbamate], the IC50 at AChE was 11.2 ± 0.3 µM; on BuChE, 0.9 ± 0.1 µM. For `CCN(C)C(=O)Oc1ccc2[nH]cc(CCNC(=O)CNc3cccc4cccnc34)c2c1` [b5, 3-(2-(2-(quinolin-8-ylamino)acetamido)ethyl)-1H-indol-5-yl ethyl (methyl) carbamate] the same measures were 13.7 ± 0.6 µM and 0.8 ± 0.1 µM. The corresponding values for `c1cnc2c(NCCc3c[nH]c4ccccc34)cccc2c1` [c1, N-(2-(1H-indol-3-yl)ethyl) quinolin-8-amine] are 32.7 ± 1.4 µM and 13.5 ± 0.4 µM. For `COc1ccc2[nH]cc(CCNc3cccc4cccnc34)c2c1` [c2, N-(2-(5-methoxy-1H-indol-3-yl)ethyl) quinolin-8-amine], half-maximal inhibition at BuChE (IC50) was put at 4.5 ± 0.3 µM. Same read-out and setting: as for `Oc1ccc2[nH]cc(CCNc3cccc4cccnc34)c2c1` [c3, 3-(2-(quinolin-8-ylamino)ethyl)-1H-indol-5-ol], the figure is 4.3 ± 0.4 µM; as for `CN(C)C(=O)Oc1ccc2[nH]cc(CCNc3cccc4cccnc34)c2c1` [c4, 3-(2-(quinolin-8-ylamino)ethyl)-1H-indol-5-yl dimethylcarbamate], 0.9 ± 0.1 µM. `CCN(C)C(=O)Oc1ccc2[nH]cc(CCNc3cccc4cccnc34)c2c1` [c5, 3-(2-(quinolin-8-ylamino)ethyl)-1H-indol-5-yl ethyl (methyl) carbamate]: the values for the IC50 against AChE and on BuChE were 25.1 ± 1.7 µM and 1.1 ± 0.1 µM, respectively.
